Assay results: paper PMC4059350 (DNA repair, 2014)
Changes are numbered by the printed parent chain.

Key:
Msh2-Msh3 [1] = target: T1, Msh2-Msh3 (Saccharomyces cerevisiae, UniProt P25336+P25847); assay: nitrocellulose filter binding, competition with […]-ATPγS after ADP pre-binding; conditions: no DNA; 0.5 mM ADP, 8 μM ATPγS, 50 nM protein
T1 sequence (P25847 1-964): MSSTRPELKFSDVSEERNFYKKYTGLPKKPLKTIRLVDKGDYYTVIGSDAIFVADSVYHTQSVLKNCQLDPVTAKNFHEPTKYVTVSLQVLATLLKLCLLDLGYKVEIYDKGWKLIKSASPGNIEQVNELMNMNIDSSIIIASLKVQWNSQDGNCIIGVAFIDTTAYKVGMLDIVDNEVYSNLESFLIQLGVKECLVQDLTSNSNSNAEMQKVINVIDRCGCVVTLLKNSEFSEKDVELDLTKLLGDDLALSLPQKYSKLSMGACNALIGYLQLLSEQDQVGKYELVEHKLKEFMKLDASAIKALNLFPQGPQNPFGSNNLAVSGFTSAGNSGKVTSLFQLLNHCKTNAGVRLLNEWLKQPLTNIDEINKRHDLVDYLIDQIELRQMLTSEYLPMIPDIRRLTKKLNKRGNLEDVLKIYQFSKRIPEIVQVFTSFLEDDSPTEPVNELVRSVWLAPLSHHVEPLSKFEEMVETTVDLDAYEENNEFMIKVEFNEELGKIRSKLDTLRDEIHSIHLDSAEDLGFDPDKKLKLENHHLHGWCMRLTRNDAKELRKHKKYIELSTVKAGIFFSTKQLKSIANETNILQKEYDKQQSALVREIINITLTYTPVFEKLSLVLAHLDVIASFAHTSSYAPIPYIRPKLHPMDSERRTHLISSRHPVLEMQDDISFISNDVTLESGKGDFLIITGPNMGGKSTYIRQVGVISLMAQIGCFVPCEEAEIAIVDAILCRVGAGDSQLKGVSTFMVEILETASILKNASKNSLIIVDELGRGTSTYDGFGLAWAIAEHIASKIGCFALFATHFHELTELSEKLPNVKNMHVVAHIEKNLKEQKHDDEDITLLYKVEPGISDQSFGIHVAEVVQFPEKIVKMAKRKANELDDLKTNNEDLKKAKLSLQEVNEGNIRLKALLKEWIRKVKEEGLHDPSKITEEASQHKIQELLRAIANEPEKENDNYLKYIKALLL
T1 sequence (P25336 1-1018): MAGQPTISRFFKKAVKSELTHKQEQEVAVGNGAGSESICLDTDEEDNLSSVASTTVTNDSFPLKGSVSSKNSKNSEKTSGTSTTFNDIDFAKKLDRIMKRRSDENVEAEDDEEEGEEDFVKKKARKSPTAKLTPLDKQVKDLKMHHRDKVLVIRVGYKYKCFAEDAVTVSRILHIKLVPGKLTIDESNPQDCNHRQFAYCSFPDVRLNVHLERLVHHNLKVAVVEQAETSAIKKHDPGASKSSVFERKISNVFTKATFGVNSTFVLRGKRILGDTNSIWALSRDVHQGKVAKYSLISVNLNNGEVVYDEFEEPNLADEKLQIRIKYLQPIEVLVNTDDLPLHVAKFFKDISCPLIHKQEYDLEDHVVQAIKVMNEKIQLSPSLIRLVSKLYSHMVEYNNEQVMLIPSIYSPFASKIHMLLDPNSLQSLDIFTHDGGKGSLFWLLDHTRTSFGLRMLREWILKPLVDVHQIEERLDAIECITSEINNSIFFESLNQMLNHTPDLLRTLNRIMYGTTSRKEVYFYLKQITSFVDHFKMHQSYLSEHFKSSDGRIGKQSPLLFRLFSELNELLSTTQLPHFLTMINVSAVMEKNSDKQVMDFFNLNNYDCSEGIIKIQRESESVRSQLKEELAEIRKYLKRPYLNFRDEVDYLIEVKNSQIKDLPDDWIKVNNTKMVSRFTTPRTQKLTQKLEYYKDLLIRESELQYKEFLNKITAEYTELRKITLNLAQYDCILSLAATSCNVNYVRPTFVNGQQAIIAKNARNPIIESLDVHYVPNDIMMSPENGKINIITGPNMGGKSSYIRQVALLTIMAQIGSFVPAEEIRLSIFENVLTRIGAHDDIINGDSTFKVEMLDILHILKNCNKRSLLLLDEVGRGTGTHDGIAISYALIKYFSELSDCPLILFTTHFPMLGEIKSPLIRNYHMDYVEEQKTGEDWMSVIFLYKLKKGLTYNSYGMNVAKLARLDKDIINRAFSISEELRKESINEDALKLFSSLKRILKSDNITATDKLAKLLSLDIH

Msh2-Msh3 [2] = target: T1, Msh2-Msh3; assay: ATPγS titration into steady-state coupled ATPase assay; type: biochemical
Msh2-Msh3 [3] = target: T2, Msh2-Msh3 (Saccharomyces cerevisiae, UniProt P25336+P25847, P25336:Y942A); assay: as above; type: biochemical
T2 sequence (P25847 1-964): T1 sequence (P25847 1-964)
T2 sequence (P25336 1-1018 Y942A): T1 sequence (P25336 1-1018) with Y942A

fraction of ATPγS bound relative to no ADP, 30 s (Msh2-Msh3 [1]) [fraction]	SMILES	IC50 (Msh2-Msh3 [2]) [mM]	IC50 (Msh2-Msh3 [3]) [mM]
0.54 ± 0.15	Nc1ncnc2c1ncn2[C@@H]1O[C@H](COP(=O)(O)OP(=O)(O)O)[C@@H](O)[C@H]1O [ADP]		
	Nc1ncnc2c1ncn2[C@@H]1O[C@H](CO[P@](=O)(O)O[P@](=O)(O)O[P@@](=O)(O)S)[C@@H](O)[C@H]1O [ATPγS]	6.3	0.8
